Measurements reported in ChEMBL document CHEMBL4842372, “Discovery of ARD-2585 as an Exceptionally Potent and Orally Active PROTAC Degrader of Androgen Receptor for the Treatment of Advanced Prostate Cancer” (J Med Chem, 2021).
Values belong to the molecule of their own block, whether it stands above or below them.

What was measured:
VCaP [1] = assay: Antitumor activity against human VCaP cells xenografted in CB17:SCID mouse assessed as tumor growth inhibition at 40 mg/kg, po treated for 37 days relative to control; format: functional; details: 888 h, time 37 day, read-out: TGI
[2] = Oral bioavailability in SCID mouse at 3 mg/kg by LC-MS/MS analysis; format: ADME, organism-based; details: in vivo
VCaP [3] = assay: Growth inhibition of human VCaP cells assessed as cell viability by WST-8 assay; format: functional, cell-based
LNCaP = assay: Growth inhibition of human LNCaP cells carrying AR T878A mutant assessed as cell viability by WST-8 assay; format: functional, cell-based
[4] = target: Protein cereblon/Androgen receptor (Homo sapiens, UniProt P10275+Q96SW2, T878A); details: lncap
[5] = target: Protein cereblon/Androgen receptor (Homo sapiens, UniProt P10275+Q96SW2); assay: Protac activity at CRBN/AR in human VCaP cells assessed as AR degradation after 24 hrs by Western blot analysis; format: cell-based
Chain of Protein cereblon/Androgen receptor (Homo sapiens, UniProt P10275+Q96SW2) (P10275 whole entry): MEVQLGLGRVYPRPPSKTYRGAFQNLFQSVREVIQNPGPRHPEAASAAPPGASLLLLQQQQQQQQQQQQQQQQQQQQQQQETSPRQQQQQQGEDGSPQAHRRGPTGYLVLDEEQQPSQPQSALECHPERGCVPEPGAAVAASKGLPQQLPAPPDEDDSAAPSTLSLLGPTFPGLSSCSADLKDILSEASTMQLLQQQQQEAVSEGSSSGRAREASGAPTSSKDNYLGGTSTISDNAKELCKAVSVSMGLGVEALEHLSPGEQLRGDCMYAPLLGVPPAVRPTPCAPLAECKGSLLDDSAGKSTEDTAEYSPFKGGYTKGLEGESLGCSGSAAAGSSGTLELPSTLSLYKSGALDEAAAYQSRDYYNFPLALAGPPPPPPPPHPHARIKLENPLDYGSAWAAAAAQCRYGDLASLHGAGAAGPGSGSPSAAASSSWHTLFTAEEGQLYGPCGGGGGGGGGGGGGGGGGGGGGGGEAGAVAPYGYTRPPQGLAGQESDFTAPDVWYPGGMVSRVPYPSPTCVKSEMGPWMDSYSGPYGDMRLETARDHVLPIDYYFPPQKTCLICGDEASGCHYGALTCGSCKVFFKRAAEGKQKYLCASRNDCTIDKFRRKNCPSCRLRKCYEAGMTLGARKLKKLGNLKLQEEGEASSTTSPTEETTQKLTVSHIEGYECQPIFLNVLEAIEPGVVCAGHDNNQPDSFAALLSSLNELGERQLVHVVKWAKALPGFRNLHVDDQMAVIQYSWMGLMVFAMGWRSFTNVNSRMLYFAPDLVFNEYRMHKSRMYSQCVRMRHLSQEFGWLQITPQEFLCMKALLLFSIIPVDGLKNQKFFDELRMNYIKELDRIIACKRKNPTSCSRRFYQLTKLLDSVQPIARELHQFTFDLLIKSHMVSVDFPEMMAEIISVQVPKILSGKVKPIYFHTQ
Chain of Protein cereblon/Androgen receptor (Homo sapiens, UniProt P10275+Q96SW2) (Q96SW2 whole entry): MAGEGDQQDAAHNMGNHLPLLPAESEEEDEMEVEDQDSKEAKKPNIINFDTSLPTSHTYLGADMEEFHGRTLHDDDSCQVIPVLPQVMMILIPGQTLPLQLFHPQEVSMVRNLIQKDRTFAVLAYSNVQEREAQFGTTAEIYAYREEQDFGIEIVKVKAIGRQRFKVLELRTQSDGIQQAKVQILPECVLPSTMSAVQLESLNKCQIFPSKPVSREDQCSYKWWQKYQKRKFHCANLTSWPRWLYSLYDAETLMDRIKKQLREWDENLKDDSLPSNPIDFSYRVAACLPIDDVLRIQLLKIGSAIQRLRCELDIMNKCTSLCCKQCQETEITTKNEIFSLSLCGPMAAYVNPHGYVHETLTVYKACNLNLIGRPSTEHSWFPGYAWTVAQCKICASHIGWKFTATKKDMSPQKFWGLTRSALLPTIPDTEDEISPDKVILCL

Chain of Protein cereblon/Androgen receptor (Homo sapiens, UniProt P10275+Q96SW2, T878A) (P10275 whole entry T878A, stated change not applied): as the sequence (P10275 whole entry) above, with T878A counted along it
Chain of Protein cereblon/Androgen receptor (Homo sapiens, UniProt P10275+Q96SW2, T878A) (Q96SW2 whole entry, stated change not applied): as the sequence (Q96SW2 whole entry) above

SMILES: CNC(=O)c1ccc(N2C(=S)N(c3ccc(C#N)c(C(F)(F)F)c3)C(=O)C2(C)C)cc1F [ENZALUTAMIDE]
inhibition in vivo at 40 mg/kg (VCaP [1]): 45%

SMILES: CN(c1ccc(C#N)c(Cl)c1)[C@H]1CC[C@H](NC(=O)c2ccc(N3CCC(CN4CCN(c5ccc6c(c5)C(=O)N(C5CCC(=O)NC5=O)C6=O)CC4)CC3)cc2)CC1 (stereo partly drawn)
F [2]: 35%

IC50 (VCaP [3]): 2.7 nM
SMILES: N#Cc1ccc(O[C@H]2CC[C@H](NC(=O)c3ccc(N4CCN(CC5CCN(c6ccc7c(c6)C(=O)N(C6CCC(=O)NC6=O)C7=O)CC5)CC4)cc3)CC2)cc1Cl (stereo partly drawn)

IC50 (VCaP [3]): > 1000 nM
SMILES: N#Cc1ccc(O[C@H]2CC[C@H](NC(=O)c3ccc(N4CCC(N5CCN(c6ccc7c(c6)C(=O)N(C6CCC(=O)NC6=O)C7=O)CC5)CC4)cc3)C2)cc1Cl (stereo partly drawn)

SMILES: CN(c1ccc(C#N)c(Cl)c1)[C@H]1CC[C@H](NC(=O)c2ccc(N3CC(CN4CCN(c5ccc6c(c5)C(=O)N(C5CCC(=O)NC5=O)C6=O)CC4)C3)cc2)CC1 (stereo partly drawn)
F [2]: 34%
IC50 (VCaP [3]): 4.3 nM
IC50 (LNCaP): 11.6 nM
DC50 [4]: 1.9 nM

IC50 (VCaP [3]): > 1000 nM
SMILES: N#Cc1ccc(OC2CCN(C(=O)c3ccc(N4CCC(N5CCN(c6ccc7c(c6)C(=O)N(C6CCC(=O)NC6=O)C7=O)CC5)CC4)cc3)CC2)cc1Cl (stereo not drawn)

SMILES: CN1CCN(c2ccc(C(=O)N[C@H]3CC[C@H](N(C)c4ccc(C#N)c(Cl)c4)CC3)cc2)CC1
IC50 (VCaP [3]): 61 nM

SMILES: CN(c1ccc(C#N)c(Cl)c1)[C@H]1CC[C@H](NC(=O)c2ccc(N3CCN(CC4CN(c5ccc6c(c5)C(=O)N(C5CCC(=O)NC5=O)C6=O)C4)CC3)cc2)CC1 (stereo partly drawn)
F [2]: 30%

DC50 [5]: 3.2 nM
SMILES: N#Cc1ccc(O[C@H]2CC[C@H](NC(=O)c3ccc(NCCCCCCCCCNc4ccc5c(c4)C(=O)N(C4CCC(=O)NC4=O)C5=O)cc3)CC2)cc1Cl (stereo partly drawn)

IC50 (VCaP [3]): > 1000 nM
SMILES: N#Cc1ccc(O[C@@H]2CCCN(C(=O)c3ccc(N4CCC(N5CCN(c6ccc7c(c6)C(=O)N(C6CCC(=O)NC6=O)C7=O)CC5)CC4)cc3)CC2)cc1Cl (stereo partly drawn)

IC50 (VCaP [3]): > 1000 nM
SMILES: N#Cc1ncc(N2C(=O)C3(CCC3)N(c3ccc(C(=O)N4CCN(C5CCN(c6ccc7c(c6)C(=O)N(C6CCC(=O)NC6=O)C7=O)CC5)CC4)c(F)c3)C2=S)cc1C(F)(F)F (stereo not drawn)

DC50 [5]: 1.1 nM
SMILES: N#Cc1ccc(O[C@H]2CC[C@H](NC(=O)c3ccc(NCCCCNc4ccc5c(c4)C(=O)N(C4CCC(=O)NC4=O)C5=O)cc3)CC2)cc1Cl (stereo partly drawn)

DC50 [5]: 2.7 nM
SMILES: N#Cc1ccc(O[C@H]2CC[C@H](NC(=O)c3ccc(N4CCN(CCCNc5ccc6c(c5)C(=O)N(C5CCC(=O)NC5=O)C6=O)CC4)cc3)CC2)cc1Cl (stereo partly drawn)

DC50 [5]: 0.3 nM
IC50 (VCaP [3]): 6.7 nM
SMILES: N#Cc1ccc(O[C@H]2CC[C@H](NC(=O)c3ccc(N4CCN(CC5CN(c6ccc7c(c6)C(=O)N(C6CCC(=O)NC6=O)C7=O)C5)CC4)cc3)CC2)cc1Cl (stereo partly drawn)
